pIC50: −log10 of the molar value. “Also recorded” adds a separate entry of the source. Read-outs that look alike come from different tables or passages of the source.
Experiments:
[1] = system: OSM-mediated STAT3 phosphorylation in MCF-7 cells; experiment: pSTAT3 ELISA in MCF-7 cells treated with OSM ± SMI; format: cell-based; conditions: Homo sapiens, MCF7
Method: For phospho-STAT3 (pSTAT3) ELISAs, T47D MDA-MB-231, and MCF-7 cells were seeded in 12- or 24-well plates at 70–75% confluency and allowed to adhere overnight, after which cells were serum-starved with serum-free RPMI-1640 for 4 h. SMIs (10 μM in DMSO or serially diluted to specified concentrations from a 100 mM stock in DMSO) and human recombinant OSM (10 ng/mL; PeproTech; #300–10T-10UG) were incubated in serum-free RPMI-1640 medium for 1 h. After incubation, the SMI-10 analogs or SMI-10B13 and OSM were added to the serum-starved cells for 30 min. Immediately afterward, the cells were lysed using 1x PathScan Sandwich ELISA Lysis Buffer (Cell Signaling Technology; #7018S), collected, and stored at −20 °C. Lysates were analyzed for pSTAT3 levels using either the PathScan Phospho-STAT3 (Tyr705) Sandwich ELISA Antibody Pair kit (Cell Signaling Technology; #7146) or Human/Mouse Phospho-STAT3 (Y705) DuoSet IC ELISA (R&D Systems; DYC4607B), according to manufacture’s protocol. pSTAT3 expression was measured with absorbance at 450 nm and quantified by comparison relative to OSM-induced pSTAT3 levels. To calculate an IC50 for SMI-10B13, a standard curve was generated as described in the DuoSet IC ELISA datasheet to determine the concentration of pSTAT3.

[2] = system: MCF-7-luc-OSM-overexpressing breast tumor cells; experiment: ER+ orthotopic xenograft, survival and metastasis over 50 days; format: in vivo, athymic nu/nu mice
Method: To evaluate the effectiveness of SMI-10B13 against survivability and metastasis, we performed a related but separate experiment. As before, mice were treated with either vehicle or SMI-10B13 12 h prior to tumor cell injection and monitored for tumor growth while receiving treatment 3x weekly (Figure A). […] After 50 days, all mice were sacrificed, and metastases were evaluated with ex vivo imaging. […] Thus, for the first time, we have shown that an anti-OSM small molecule inhibitor may inhibit breast cancer progression and metastasis.
(§1) Seven- to eight-week-old athymic nu/nu mice were purchased from Jackson Laboratory and quarantined for 6 days. Twelve hours before tumor cell injection, the mice were grouped and injected intraperitoneally (i.p.) with 50 mg/kg of SMI-10B13 or vehicle (10% DMSO, 10% EtOH, 20% Cremophor EL, 60% propylene glycol; diluted in half with PBS). The following morning, MCF-7-Luc-flOSM cells (described above) were grown to 70–75% confluency, and the cells were concentrated to 4.0 × 10^7 cells/mL in PBS containing serum-free RPMI-1640. A 50 μL cell suspension was injected into the fourth mammary fat pad, resulting in 2.0 × 10^6 cells/injection. Mice were then injected (via i.p.) 3x weekly with SMI-10B13 or the vehicle control. Mice were also injected 1x weekly with D-luciferin (PerkinElmer; 122799–5) for bioluminescence detection for a period of 40–50 days, and 3x weekly for tumor growth via caliper measurement. Animals were sacrificed, and their serum and tumors were collected for analysis. Organs were harvested, and ex vivo imaging was performed to evaluate metastasis. All in vivo and ex vivo imaging was performed as previously described. All animal experiments were performed following the protocols evaluated and approved by the Boise State University Institutional Animal Care and Use Committee (IACUC) (Ethics Approval Number: AC23-043).

[3] = molecular target: T1, gp130 binding to immobilized OSM (Homo sapiens, UniProt P13725); experiment: SPR surface competition binding assay between gp130 and SMI for immobilized OSM; conditions: gp130 50 nM
T1 construct: purchased R&D Systems 671-GP
T1 sequence (P13725 26-212 limits assumed): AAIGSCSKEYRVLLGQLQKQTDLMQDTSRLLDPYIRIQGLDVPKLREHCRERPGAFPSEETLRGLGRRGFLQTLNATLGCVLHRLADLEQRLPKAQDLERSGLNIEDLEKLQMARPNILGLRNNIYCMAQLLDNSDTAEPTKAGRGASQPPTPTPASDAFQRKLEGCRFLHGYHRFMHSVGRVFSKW
Method: SPR experiments were performed on a Reichert SR7000 instrument that was fed by a Surveyor LC autosampler and pump. All experiments were conducted at 25 °C. In all experiments, OSM (∼24 kDa; as previously described) was immobilized to the surface of a PEF-10% carboxyl mixed self-assembled monolayer gold sensor chip (Reichert part #13206061), and the experiments were completed within 3 days. The immobilization phase was conducted using sterile-filtered, fresh 10 mM acetate buffer, pH 5, at a flow rate of 15 μL/min. The chip was first washed with 100 μL of 2 M NaCl in DI water and 100 μL of 10 mM NaOH in DI water. The chip was activated with a 100 μL injection of 10 mg/mL N-hydroxysuccinimide (NHS) and 40 mg/mL 1-ethyl-3-(3-dimethylaminopropyl)­carbodiimide (EDC) mixed in 1 mL of nanopure water immediately before injecting. Then, a 200 μg/mL solution of OSM (100–300 μL) in acetate buffer was diluted and injected multiple times with 100 μL injections to achieve a response of about 600–1000 RU. The remaining reactive NHS groups were then deactivated with a 100 μL injection of 1 M ethanolamine hydrochloride in DI H2O. […] The real-time changes in refractive index units of the association and dissociation phases were monitored. […]

[4] = system: MCF-7-luc-OSM-overexpressing cells; format: in vivo
Method: To evaluate SMI-10B13 on OSM inhibition in vivo, athymic nu/nu mice were randomized and given equal dose of either vehicle or SMI-10B13 (50 mg/kg) 12 h before tumor cell injection. Mice were then injected with 2 × 10^6 cells in the fourth mammary fat pad and monitored for tumor growth over 40 days, receiving either vehicle or SMI-10B13 treatment 3x weekly and evaluated for tumor growth until the end point of the experiment (Figure A).
as §1

[5] = system: OSM-mediated signaling (pSTAT3, pAKT, pJNK, pERK) in T47D cells; experiment: Immunoblot of OSM-mediated signaling in T47D cells; format: cell-based, human; conditions: SMI 10 μM, OSM 10 ng/mL, 30 min
Method: For immunoblot analysis, T47D breast cancer cells were treated and collected in the same manner as described above for the ELISA preparation. After lysate collection, samples were run on a 10% SDS-PAGE gel and transferred to a nitrocellulose membrane via semidry transfer. Blots were rinsed with DI H2O and allowed to completely dry at room temperature before blocking with LiCor Intercept PBS Blocking Buffer (LiCor, Lincoln, NE; Cat# 927-90001) for 1 h. After blocking, primary antibodies (1:1000) suspended in blocking buffer supplemented with 0.1% Tween were added, shaken at room temperature for 1 h, and stored at 4 °C overnight. Membranes were then washed 6 times for 5 minutes each with 1X PBS supplemented with 0.5% Tween while shaking at room temperature, and secondary antibodies (1:15,000) were applied and incubated for 1 h. Afterward, membranes were washed as previously described above and imaged at 700 nm using the LiCor Odyssey CLx Imaging System. Quantification of immunoblots was performed using the LiCor Image Studio software, normalizing to β-Actin, and calculating relative fold change compared to nontreated samples. Antibodies used included phospho-STAT3 (Y705) (Cell Signaling Technology, Danvers, MA; cat. no. 9145), phospho-AKT (S473) (Cell Signaling Technology, Danvers, MA; cat. no. 4060), phospho-JNK ([…]/[…]) (Cell Signaling Technology, Danvers, MA; cat. no. 4668), phospho-ERK (T202/Y204) (Cell Signaling Technology, Danvers, MA; cat. no. 9101), β-Actin (Cell Signaling Technology; cat. no. 3700), and donkey antirabbit IRDye 800CW (LiCor, Lincoln, NE; Cat# 925-32213).

[6] = Aqueous solubility (comparison in words); format: physicochemical; conditions: compared to other analogs

Question: With `O=C(O)/C=C/c1cc(-c2ccc3cc[nH]c3c2)c(-c2ccc3cc[nH]c3c2)o1` [SMI-10B13, (E)-3-(4,5-di(1H-Indol-6-yl)furan-2-yl)acrylic Acid] as the molecule, how does the IC50 ([1]; Figure S3 graph B (MCF-7 by order), four parameter nonlinear regression, given as negative log value, read-out: LogIC50 (graph B) (converted)) read?
Answer: 164 nM

Question: What about the pIC50 ([1]; MCF-7 cells, ELISA, read-out: IC50 for inhibition of STAT3 phosphorylation) of the same molecule?
Answer: 6.79

Question: What about the “Survival (Kaplan-Meier) vs vehicle” value ([2]; 50 mg/kg i.p. 3x weekly, 50 days, p = 0.04) of the same molecule?
Answer: improved survival; also recorded: prolonged survival; also recorded: increase survival

Question: What about the “Lung metastases fluorescent intensity (ex vivo imaging)” value ([2]; 50 mg/kg i.p. 3x weekly, after 50 days) of the same molecule?
Answer: 41.9 × 10^5 intensity

Question: What about the “Tumor size vs vehicle” value ([2]; 50 days experiment, end point) of the same molecule?
Answer: overall smaller tumors

Question: And the “Lung metastasis intensity vs vehicle” value ([2]; ex vivo imaging, 50 days)?
Answer: reduction in intensity was not statistically significant; also recorded: trend toward significance in decreasing lung metastasis intensity

Question: And the “Inhibition of gp130 binding to immobilized OSM” value ([3]; SMI 100 μM)?
Answer: almost completely inhibited

Question: And the pIC50 ([3]; SPR surface competition, estimated, read-out: estimated IC50 for inhibition of gp130 binding to immobilized OSM)?
Answer: 4.00 to 4.52

Question: And the “Tumor size diameter (mm) at end point vs vehicle control” value ([4]; 50 mg/kg i.p. 3x weekly, 40 days, caliper)?
Answer: significant reduction in tumor mm size

Question: And the “Bioluminescent tumor detection vs vehicle control” value ([4]; 50 mg/kg i.p. 3x weekly, 40 days, weekly imaging)?
Answer: significant reduction in bioluminescent detection

Question: And the “Signs of drug-related toxicity in mice” value ([4]; mouse, in vivo)?
Answer: none of the mice injected with SMI exhibited any signs of drug-related toxicity

Question: What about the “Inhibition of OSM-mediated signaling cascades by immunoblot (words)” value (from here on “Inhibition … (words)”) [5] of the same molecule?
Answer: most effective; also recorded: better at inhibiting pSTAT3, pAKT, pJNK, and pERK signaling

Question: With `O=C(O)/C=C/c1cc(-c2ccc3c(c2)OCO3)c(-c2ccc3c(c2)OCO3)o1` [SMI-10B, (E)-3-(4,5-Bis(benzo[d][1,3]dioxol-5-yl)furan-2-yl)acrylic acid] as the molecule, how does the “Aqueous solubility” value [6] read?
Answer: increased aqueous solubility compared to other analogs

Question: What about the “Inhibition … (words)” value [5] of the same molecule?
Answer: significant reductions, near nontreated levels

Question: What about the “Inhibition … (words)” value ([5]; listed as 10B) of the same molecule?
Answer: capable of inhibiting multiple cascades
